Data published in patent US20230002359A1, “PESTICIDALLY ACTIVE FUSED BICYCLIC HETEROAROMATIC COMPOUNDS” (priority 2019, published 2023).

Columns and labels:
Format in all cases: in vivo
[1] = test system: Diabrotica Balteata (Corn Root Worm); assay: Example B1: Diabrotica balteata (corn root worm), maize sprouts sprayed, L2 larvae; details: 96 h, application rate of 200 ppm, 4 days after infestation, L2 larvae, read-out: control in at least one of the two categories (mortality or growth inhibition)
Method in brief: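 Spray test: maize sprouts on agar, aqueous dilutions of 10′000 ppm DMSO stock; after drying, 6–10 L2 larvae/well. Read-out at 4 d post-infestation: mortality and growth inhibition vs untreated.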

[2] = test system: Chilo suppressalis (Striped Rice Stemborer); assay: Example B3: Chilo suppressalis (striped rice stemborer), artificial diet, L2 larvae; details: 144 h, application rate of 200 ppm, 6 days after infestation, L2 larvae, read-out: control in at least one of the three categories (mortality, anti-feedant effect, or growth inhibition)
Method in brief: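 Scoring covers mortality, anti-feedant effect and growth inhibition at 6 days post-infestation, relative to untreated diet, with activity defined as at least one category above untreated. Test solutions were aqueous, made from 10'000 ppm DMSO stocks, and applied to artificial diet before drying and infestation with L2 larvae.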

[3] = test system: Plutella xylostella (Diamond Back Moth); assay: Example B4: Plutella xylostella (diamond back moth), artificial diet, eggs, 24-well; details: 192 h, application rate of 200 ppm, 8 days after infestation, eggs, read-out: control in at least one of the two categories (mortality or growth inhibition)
Protocol: 24-well microtiter plates with artificial diet were treated with aqueous test solutions prepared from 10′000 ppm DMSO stock solutions by pipetting. After drying, Plutella eggs were pipetted through a plastic stencil onto a gel blotting paper and the plate was closed with it. The samples were assessed for mortality and growth inhibition in comparison to untreated samples 8 days after infestation.

[4] = test system: Myzus persicae (Green Peach Aphid); assay: Example B6: Myzus persicae (green peach aphid) intrinsic activity, sucrose solution; details: 120 h, test rate of 12 ppm, 5 days after infestation, intrinsic activity, read-out: mortality
Protocol: Test compounds prepared from 10′000 ppm DMSO stock solutions were applied by pipette into 24-well microtiter plates and mixed with sucrose solution. The plates were closed with a stretched Parafilm. A plastic stencil with 24 holes was placed onto the plate and infested pea seedlings were placed directly on the Parafilm. The infested plate was closed with a gel blotting paper and another plastic stencil and then turned upside down. The samples were assessed for mortality 5 days after infestation.

[5] = test system: Spodoptera littoralis (Egyptian Cotton Leaf Worm); assay: Example B7: Spodoptera littoralis (Egyptian cotton leaf worm), cotton leaf discs sprayed, L1 larvae; details: foliar, 72 h, application rate of 200 ppm, 3 days after infestation, L1 larvae, read-out: control in at least one of the three categories (mortality, anti-feedant effect, or growth inhibition)
Method in brief: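 Spray application onto agar-supported cotton leaf discs used aqueous solutions derived from 10′000 ppm DMSO stocks. Once dry, discs were infested with five L1 larvae and evaluated after 3 days for mortality, anti-feeding and growth inhibition relative to untreated controls.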

CC(Nc1ncnc2c(Br)cc(Cl)cc12)c1ncnn1-c1ncccn1 (centres unmarked) [P.171, 8-bromo-6-chloro-N-[1-(2-pyrimidin-2-yl-1,2,4-triazol-3-yl)ethyl]quinazolin-4-amine]
≥ 80%: percent control (mortality or growth inhibition) at 200 ppm [1] | percent control (mortality, anti-feedant effect or growth inhibition) at 200 ppm [2] | percent control (mortality or growth inhibition) at 200 ppm [3] | mortality at 12 ppm [4] | percent control (mortality, anti-feedant effect or growth inhibition) at 200 ppm [5]

C[C@@H](c1ncnn1-c1ccc(C#N)cn1)N(C)c1ncnc2c(C(F)(F)F)cc(C3CC3)cc12 [P.177, 6-[5-[(1S)-1-[[6-cyclopropyl-8-(trifluoromethyl)quinazolin-4-yl]-methyl-amino]ethyl]-1,2,4-triazol-1-yl]pyridine-3-carbonitrile]
≥ 80%: percent control (mortality or growth inhibition) at 200 ppm [1] | percent control (mortality, anti-feedant effect or growth inhibition) at 200 ppm [2] | percent control (mortality or growth inhibition) at 200 ppm [3] | mortality at 12 ppm [4] | percent control (mortality, anti-feedant effect or growth inhibition) at 200 ppm [5]

CC(Nc1ncnc2c(Br)cc(Cl)cc12)c1nccnc1-c1ncccn1 (centres unmarked) [P.183, 8-bromo-6-chloro-N-[1-(3-pyrimidin-2-ylpyrazin-2-yl)ethyl]quinazolin-4-amine]
≥ 80%: percent control (mortality or growth inhibition) at 200 ppm [1] | percent control (mortality, anti-feedant effect or growth inhibition) at 200 ppm [2] | percent control (mortality or growth inhibition) at 200 ppm [3] | mortality at 12 ppm [4] | percent control (mortality, anti-feedant effect or growth inhibition) at 200 ppm [5]

CC(c1ncnn1-c1ccc(OC(F)F)cn1)N(C)c1ncnc2c(C(F)(F)F)cc(Br)cc12 (centres unmarked) [P.194, 6-bromo-N-[1-[2-[5-(difluoromethoxy)-2-pyridyl]-1,2,4-triazol-3-yl]ethyl]-N-methyl-8-(trifluoromethyl)quinazolin-4-amine]
≥ 80%: percent control (mortality or growth inhibition) at 200 ppm [1] | percent control (mortality, anti-feedant effect or growth inhibition) at 200 ppm [2] | percent control (mortality or growth inhibition) at 200 ppm [3] | mortality at 12 ppm [4] | percent control (mortality, anti-feedant effect or growth inhibition) at 200 ppm [5]

C[C@@H](c1ncnn1-c1ncccn1)N(C)c1ncnc2c(C(F)(F)F)cc(Br)cc12 [P.208, 6-bromo-N-methyl-N-[(1S)-1-(2-pyrimidin-2-yl-1,2,4-triazol-3-yl)ethyl]-8-(trifluoromethyl)quinazolin-4-amine]
≥ 80%: percent control (mortality or growth inhibition) at 200 ppm [1] | percent control (mortality, anti-feedant effect or growth inhibition) at 200 ppm [2] | percent control (mortality or growth inhibition) at 200 ppm [3] | mortality at 12 ppm [4] | percent control (mortality, anti-feedant effect or growth inhibition) at 200 ppm [5]

CC(Nc1ncnc2c(Br)cc(OC(F)(F)F)cc12)c1ncnn1-c1ncccn1 (centres unmarked) [P.229, 8-bromo-N-[1-(2-pyrimidin-2-yl-1,2,4-triazol-3-yl)ethyl]-6-(trifluoromethoxy)quinazo-line-4-amine]
≥ 80%: percent control (mortality or growth inhibition) at 200 ppm [1] | percent control (mortality, anti-feedant effect or growth inhibition) at 200 ppm [2] | percent control (mortality or growth inhibition) at 200 ppm [3] | mortality at 12 ppm [4] | percent control (mortality, anti-feedant effect or growth inhibition) at 200 ppm [5]

CC(c1ncnn1-c1ccc(C#N)cn1)N(C)c1ncnc2c(OC(F)F)cc(Br)cc12 (centres unmarked) [P.230, 6-[5-[1-[[6-bromo-8-(difluoromethoxy)quinazo-lin-4-yl]-methyl-amino]ethyl]-1,2,4-triazol-1-yl]pyridine-3-carbonitrile]
≥ 80%: percent control (mortality or growth inhibition) at 200 ppm [1] | percent control (mortality, anti-feedant effect or growth inhibition) at 200 ppm [2] | percent control (mortality or growth inhibition) at 200 ppm [3] | mortality at 12 ppm [4] | percent control (mortality, anti-feedant effect or growth inhibition) at 200 ppm [5]
